Data: patent publication US20240043404A1 (AbbVie Inc., priority 2009, published 2024)
Where two headings read alike, the source gives them in different places.

Test system: RS4;11 cells
Assay: RS4;11 cell viability assay (CellTiter Glo);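 also: acute lymphoblastic leukemia line RS4,11, EC50 derived from percentage of viable cells after treatment relative to untreated controls, cell killing taken as a measure of Bcl-2 inhibition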
Format: cell-based, human
Details: Homo sapiens, read-out: RS4
[1] = RS4-11, 48 h, 50,000 cells per well, 10% human serum, 48 hours, 11 EC50 Values

Experimental: The acute lymphoblastic leukemia (ALL) cell line RS4;11 was used as the primary human cell line to assess the cellular activity of Bcl-2 selective agents in vitro and their efficacy in vivo.
Cell cytotoxicity EC50 values were assessed using CellTiter Glo (Promega) according to the manufacturer's recommendations. The EC50 values were determined as a percentage of viable cells following treatment compared to the untreated control cells.

`CC1(C)CCC(CN2CCN(c3ccc(C(=O)NS(=O)(=O)c4cnc(OCC(C)(CO)CO)c(Cl)c4)c(Oc4cnc5[nH]ccc5c4)c3)CC2)=C(c2ccc(Cl)cc2)C1` [Example 250, N-({5-chloro-6-[3-hydroxy-2-(hydroxymethyl)-2-methylpropoxy]pyridin-3-yl}sulfonyl)-4-(4-{[2-(4-chlorophenyl)-4,4-dimethylcyclohex-1-en-1-yl]methyl}piperazin-1-yl)-2-(1H-pyrrolo[2,3-b]pyridin-5-yloxy)benzamide] gave an EC50 [1] of over 1000 nM.

With `CC1(C)CCC(CN2CCN(c3ccc(C(=O)NS(=O)(=O)c4ccc(OCC5(F)CCN(C6CCOC6)CC5)c([N+](=O)[O-])c4)c(Oc4cnc5[nH]ccc5c4)c3)CC2)=C(c2ccc(Cl)cc2)C1` (centres unmarked) [Example 193, 4-(4-{[2-(4-chlorophenyl)-4,4-dimethylcyclohex-1-en-1-yl]methyl}piperazin-1-yl)-N-({4-[(4-fluoro-1-tetrahydrofuran-3-ylpiperidin-4-yl)methoxy]-3-nitrophenyl}sulfonyl)-2-(1H-pyrrolo[2,3-b]pyridin-5-yloxy)benzamide] the EC50 [1] was 0.76 nM.

`CC1(C)CCC(CN2CCN(c3ccc(C(=O)NS(=O)(=O)c4ccc(NCCCN(Cc5cncs5)C5CC5)c([N+](=O)[O-])c4)c(Oc4cnc5[nH]ccc5c4)c3)CC2)=C(c2ccc(Cl)cc2)C1` [Example 304, 4-(4-{[2-(4-chlorophenyl)-4,4-dimethylcyclohex-1-en-1-yl]methyl}piperazin-1-yl)-N-{[4-({3-[cyclopropyl(1,3-thiazol-5-ylmethyl)amino]propyl}amino)-3-nitrophenyl]sulfonyl}-2-(1H-pyrrolo[2,3-b]pyridin-5-yloxy)benzamide] was tested, and the EC50 [1] was 298 nM.

`CC1(C)CCC(CN2CCN(c3ccc(C(=O)NS(=O)(=O)c4ccc(OCC5COCCO5)c([N+](=O)[O-])c4)c(Oc4ccc5[nH]ccc5c4)c3)CC2)=C(c2ccc(Cl)cc2)C1` (centres unmarked) [Example 92, 4-(4-{[2-(4-chlorophenyl)-4,4-dimethylcyclohex-1-en-1-yl]methyl}piperazin-1-yl)-N-{[4-(1,4-dioxan-2-ylmethoxy)-3-nitrophenyl]sulfonyl}-2-(1H-indol-5-yloxy)benzamide] was tested, and the EC50 [1] was 80.9 nM and the EC50 (RS4-11, Table 4, selected compounds in U.S. Pat. Application No. 12/631404, 11 EC50) was 81 nM.

Work on `CC1(C)CCC(CN2CCN(c3ccc(C(=O)NS(=O)(=O)c4ccc(OC[C@H]5CC[C@H](N6CCOCC6)CC5)c(Cl)c4)c(Oc4cnc5[nH]ccc5c4)c3)CC2)=C(c2ccc(Cl)cc2)C1` [Example 303, N-[(3-chloro-4-{[trans-4-(morpholin-4-yl)cyclohexyl]methoxy}phenyl)sulfonyl]-4-(4-{[2-(4-chlorophenyl)-4,4-dimethylcyclohex-1-en-1-yl]methyl}piperazin-1-yl)-2-(1H-pyrrolo[2,3-b]pyridin-5-yloxy)benzamide] yielded an EC50 [1] of 47.8 nM.

With `CC1(C)CCC(c2ccc(Cl)cc2)=C(CN2CCN(c3ccc(C(=O)NS(=O)(=O)c4cnc(OCC5CCOCC5)c(C#N)c4)c(Oc4cnc5[nH]ccc5c4)c3)CC2)C1` [Example 76, 4-(4-{[2-(4-chlorophenyl)-5,5-dimethylcyclohex-1-en-1-yl]methyl}piperazin-1-yl)-N-{[5-cyano-6-(tetrahydro-2H-pyran-4-ylmethoxy)pyridin-3-yl]sulfonyl}-2-(1H-pyrrolo[2,3-b]pyridin-5-yloxy)benzamide] the EC50 [1] was 511 nM.

In the case of `CC1(C)CCC(CN2CCN(c3ccc(C(=O)NS(=O)(=O)c4ccc(OC[C@@H]5CN(C6COC6)C[C@H]5CF)c([N+](=O)[O-])c4)c(Oc4cnc5[nH]ccc5c4)c3)CC2)=C(c2ccc(Cl)cc2)C1` (relative stereo) [Example 137, 4-(4-{[2-(4-chlorophenyl)-4,4-dimethylcyclohex-1-en-1-yl]methyl}piperazin-1-yl)-N-[(4-{[trans-4-(fluoromethyl)-1-oxetan-3-ylpyrrolidin-3-yl]methoxy}-3-nitrophenyl)sulfonyl]-2-(1H-pyrrolo[2,3-b]pyridin-5-yloxy)benzamide], the EC50 [1] is reported as 12.7 nM.

`CC1(C)CCC(CN2CCN(c3ccc(C(=O)NS(=O)(=O)c4ccc(NC5CCC(N6CCC(F)(F)C6)CC5)c([N+](=O)[O-])c4)c(Oc4cnc5[nH]ccc5c4)c3)CC2)=C(c2ccc(Cl)cc2)C1` (centres unmarked) [Example 346, 4-(4-{[2-(4-chlorophenyl)-4,4-dimethylcyclohex-1-en-1-yl]methyl}piperazin-1-yl)-N-[(4-{[4-(3,3-difluoropyrrolidin-1-yl)cyclohexyl]amino}-3-nitrophenyl)sulfonyl]-2-(1H-pyrrolo[2,3-b]pyridin-5-yloxy)benzamide] showed an EC50 [1] of 190 nM.

`CC1(C)CCC(CN2CCN(c3ccc(C(=O)NS(=O)(=O)c4ccc(OCC5C[C@H]6C=C[C@@H]5C6)c([N+](=O)[O-])c4)c(Oc4cnc5[nH]ccc5c4)c3)CC2)=C(c2ccc(Cl)cc2)C1` (stereo partly drawn) [Example 201, N-({4-[(1S,4S)-bicyclo[2.2.1]hept-5-en-2-ylmethoxy]-3-nitrophenyl}sulfonyl)-4-(4-{[2-(4-chlorophenyl)-4,4-dimethylcyclohex-1-en-1-yl]methyl}piperazin-1-yl)-2-(1H-pyrrolo[2,3-b]pyridin-5-yloxy)benzamide] gave an EC50 [1] of 591 nM.

For `CC1(C)CCC(CN2CCN(c3ccc(C(=O)NS(=O)(=O)c4ccc(NC[C@@H]5CC[C@H](O)C5)c([N+](=O)[O-])c4)c(Oc4cnc5[nH]ccc5c4)c3)CC2)=C(c2ccc(Cl)cc2)C1` [Example 159, 4-(4-{[2-(4-chlorophenyl)-4,4-dimethylcyclohex-1-en-1-yl]methyl}piperazin-1-yl)-N-{[4-({[(1R,3S)-3-hydroxycyclopentyl]methyl}amino)-3-nitrophenyl]sulfonyl}-2-(1H-pyrrolo[2,3-b]pyridin-5-yloxy)benzamide], the EC50 [1] was 11.8 nM.

For `CC1(C)CCC(CN2CCN(c3ccc(C(=O)NS(=O)(=O)c4ccc(OCC5(F)CCN(C6CCOCC6)CC5)c([N+](=O)[O-])c4)c(Oc4cnc5[nH]ccc5c4)c3)CC2)=C(c2ccc(Cl)cc2)C1` [Example 192, 4-(4-{[2-(4-chlorophenyl)-4,4-dimethylcyclohex-1-en-1-yl]methyl}piperazin-1-yl)-N-({4-[(4-fluoro-1-tetrahydro-2H-pyran-4-ylpiperidin-4-yl)methoxy]-3-nitrophenyl}sulfonyl)-2-(1H-pyrrolo[2,3-b]pyridin-5-yloxy)benzamide], the EC50 [1] was 2.41 nM.

`CC1(C)CCC(CN2CCN(c3ccc(C(=O)NS(=O)(=O)c4ccc(NCCCN(C5CC5)C5COC5)c([N+](=O)[O-])c4)c(Oc4cnc5[nH]ccc5c4)c3)CC2)=C(c2ccc(Cl)cc2)C1` [Example 311, 4-(4-{[2-(4-chlorophenyl)-4,4-dimethylcyclohex-1-en-1-yl]methyl}piperazin-1-yl)-N-{[4-({3-[cyclopropyl(oxetan-3-yl)amino]propyl}amino)-3-nitrophenyl]sulfonyl}-2-(1H-pyrrolo[2,3-b]pyridin-5-yloxy)benzamide] showed an EC50 [1] of 35.8 nM.

In the case of `CO[C@H]1CC[C@H](CNc2ccc(S(=O)(=O)NC(=O)c3ccc(N4CCN(CC5=C(c6ccc(Cl)cc6)CC(C)(C)CC5)CC4)cc3Oc3cnc4[nH]ccc4c3)cc2[N+](=O)[O-])CC1` [Example 34, Trans-4-(4-{[2-(4-chlorophenyl)-4,4-dimethylcyclohex-1-en-1-yl]methyl}piperazin-1-yl)-N-[(4-{[(4-methoxycyclohexyl)methyl]amino}-3-nitrophenyl)sulfonyl]-2-(1H-pyrrolo[2,3-b]pyridin-5-yloxy)benzamide], the EC50 [1] is reported as 7.48 nM.
